Measurements: patent publication EP0648123B1, “INHIBITORS OF PROTEIN TYROSINE-PHOSPHATASE $g(a) FOR TREATMENT OF TUMORS” (NATIONAL UNIVERSITY OF SINGAPORE, priority 1992, dated 1994)
“And” between values parts separate entries of the source, which are not always exact repeats. Equal entries are not always repeated.

Key:
[1] = test system: α-21 cells; experiment: Effect of sodium orthovanadate on proliferation of PTPα-overexpressing cells (cell count); type: cell-based, Fischer rat; conditions: for cell count, set #3 / cell count, set #2 (+0.1% FCS) / Number of cells/5 cm dish / cell count, set #1 (+10% FCS): α-21; for cell count, set #3 / Number of cells/5 cm dish / cell count, set #1 (+10% FCS): 10% FCS; for cell count, set #3: then another 48 h in 10% FCS without vanadate
Description: (§1) 1. Cells were grown on 5 cm petri dishes in DME medium with 10% FCS for 48 h. After 48 h of growth, each dish of α-7, α-21, and α-29 cells contained about 0.4 x 10^5 to 0.6 x 10^5 cells, and each dish of REF-neo cells contained 1.8 x 10^5 cells. The medium was discarded, and fresh medium containing 10% FCS and the indicated concentration (below) of sodium orthovanadate was added to the cells. After 48 h of culture in this medium the cells from two replicate dishes were harvested and counted. […]
(§2) 2. Cells (control cells = REF-neo, PTPα-overexpressing cells = α-21) were grown on 5 cm petri dishes in DME medium with 10% FCS for 48 h. The medium was discarded, and fresh medium containing 10% FCS and the indicated concentration (below) of sodium orthovanadate was added to the cells. After 72 h of culture in this medium the cells from two replicate dishes were harvested and counted. The results are shown in Table 3 below and are essentially the same as in 1 above.
3. PTPα-overexpressing cells (α-21) were grown for 48 h (to about 60% confluency) in DME medium containing 10% FCS. The medium was removed and replaced with medium containing the indicated concentration of sodium orthovanadate (below) and either 10% (sets #1 and #3) or 0.1% FCS (set #2). The cells were cultured for 48 h and counted (sets #1 and 2), or the medium was removed from set #3 and replaced with medium containing 10% FCS without sodium orthovanadate and cultured for another 48 h before counting. […]

[2] = test system: α-7 cells; experiment: as above; type: cell-based, Fischer rat; conditions: 10% FCS, 48 h
Description: as §1

[3] = test system: α-29 cells; experiment: as above; type: cell-based, Fischer rat; conditions: 10% FCS, 48 h
Description: as §1

[4] = test system: α-21 cells; experiment: Colony forming ability in soft agar in the presence of sodium orthovanadate; type: cell-based, Fischer rat; conditions: 9 days
Description: The α-21 cells were grown in soft agar in the presence of the indicated concentration of sodium orthovanadate (below) on duplicate dishes. After 9 days the colonies were counted on each dish and the approximate size of the colonies noted. […]

[5] = test system: REF-neo cells; experiment: Effect of sodium orthovanadate on proliferation of control cells (cell count); type: cell-based, Fischer rat; conditions: 10% FCS
Description: as §1, §2

[6] = test system: REF α-21 PTPα-overexpressing cells; experiment: Tumourigenesis by REF α-21 cells grown and injected with vanadate; type: in vivo, nude mice
Description: The α-21 cells were grown in DME medium containing 10% FCS and then in DME medium with 0.1% FCS in the presence of 50 µM sodium orthovanadate for 48 h. The cells were then harvested by trypsinisation, centrifuged to pellet the cells, and the cell pellet resuspended in DME containing 50 µM sodium orthovanadate. Other α-21 cells were grown and prepared in a similar manner, except in the absence of sodium orthovanadate throughout. The resuspended cells (plus or minus vanadate) were subcutaneously injected into nude mice (2 x 10^6 cells/mouse, 4 mice for each treatment), and nine days later the tumour size was measured.

Compound: [Na+].[Na+].[Na+].[O]=[V]([O-])([O-])[O-] [Vanadate, sodium orthovanadate]
- toxicity to α-21 cells (resumption of proliferation once vanadate is removed) ([1]; comparison of cell numbers in sets #1 and 3): not irreversibly toxic
- cell count, set #3 ([1]; vanadate 5 µM, 48 h): 2.90 x 10^6
- cell count, set #2 (+0.1% FCS) ([1]; vanadate 5 µM, 48 h): 1.18 x 10^6
- Number of cells/5 cm dish ([1]; vanadate 5 µM, 48 h): 1.42 x 10^6 cells/5 cm dish
- cell count, set #1 (+10% FCS) ([1]; vanadate 5 µM, 48 h): 1.30 x 10^6
- Number of cells/5 cm dish ([1]; vanadate 5 µM, 72 h): 1.20 x 10^6 cells/5cm dish
- cell count, set #3 ([1]; vanadate 30 µM, 48 h): 1.46 x 10^6
- cell count, set #2 (+0.1% FCS) ([1]; vanadate 30 µM, 48 h): 5.40 x 10^5
- Number of cells/5 cm dish ([1]; vanadate 30 µM, 48 h): 7.00 x 10^5 cells/5 cm dish
- cell count, set #1 (+10% FCS) ([1]; vanadate 30 µM, 48 h): 5.00 x 10^5
- Number of cells/5 cm dish ([1]; vanadate 30 µM, 72 h): 4.80 x 10^5 cells/5cm dish
- cell count, set #3 ([1]; vanadate 60 µM, 48 h): 9.60 x 10^5
- cell count, set #2 (+0.1% FCS) ([1]; vanadate 60 µM, 48 h): 3.80 x 10^5
- Number of cells/5 cm dish ([1]; vanadate 60 µM, 48 h): 3.70 x 10^5 cells/5 cm dish
- cell count, set #1 (+10% FCS) ([1]; vanadate 60 µM, 48 h): 3.20 x 10^5
- Number of cells/5 cm dish ([1]; vanadate 60 µM, 72 h): 2.60 x 10^5 cells/5cm dish
- cell count, set #3 ([1]; vanadate 120 µM, 48 h): 5.20 x 10^5
- cell count, set #2 (+0.1% FCS) ([1]; vanadate 120 µM, 48 h): 2.00 x 10^5
- Number of cells/5 cm dish ([1]; vanadate 120 µM, 48 h): 1.60 x 10^5 cells/5 cm dish
- cell count, set #1 (+10% FCS) ([1]; vanadate 120 µM, 48 h): 1.80 x 10^5
- Number of cells/5 cm dish ([1]; vanadate 120 µM, 72 h): 1.76 x 10^5 cells/5cm dish
- Number of cells/5 cm dish ([2]; vanadate 5 µM): 1.72 x 10^6 cells/5 cm dish
- Number of cells/5 cm dish ([2]; vanadate 30 µM): 1.41 x 10^6 cells/5 cm dish
- Number of cells/5 cm dish ([2]; vanadate 60 µM): 1.18 x 10^6 cells/5 cm dish
- Number of cells/5 cm dish ([2]; vanadate 120 µM): 5.80 x 10^5 cells/5 cm dish
- Number of cells/5 cm dish ([3]; vanadate 5 µM): 1.62 x 10^6 cells/5 cm dish
- Number of cells/5 cm dish ([3]; vanadate 30 µM): 7.20 x 10^5 cells/5 cm dish
- Number of cells/5 cm dish ([3]; vanadate 60 µM): 4.70 x 10^5 cells/5 cm dish
- Number of cells/5 cm dish ([3]; vanadate 120 µM): 2.10 x 10^5 cells/5 cm dish
- Number of colonies Average ([4]; vanadate 5 µM): 1260
- Number of colonies Exp 1 ([4]; vanadate 5 µM): 1127
- Number of colonies Exp 2 ([4]; vanadate 5 µM): 1392
- Number of colonies Average ([4]; vanadate 10 µM): 1196
- Number of colonies Exp 1 ([4]; vanadate 10 µM): 1458
- Number of colonies Exp 2 ([4]; vanadate 10 µM): 934
- Number of colonies Average ([4]; vanadate 20 µM): 667
- Number of colonies Exp 1 ([4]; vanadate 20 µM): 692
- Number of colonies Exp 2 ([4]; vanadate 20 µM): 641
- Number of colonies Average ([4]; vanadate 40 µM): 292
- Number of colonies Exp 1 ([4]; vanadate 40 µM): 312
- Number of colonies Exp 2 ([4]; vanadate 40 µM): 271
- Number of colonies Average ([4]; vanadate 80 µM): 82
- Number of colonies Exp 1 ([4]; vanadate 80 µM): 90
- Number of colonies Exp 2 ([4]; vanadate 80 µM): 73
- Number of cells/5 cm dish ([5]; vanadate 5 µM, 48 h): 1.10 x 10^6 cells/5 cm dish
- Number of cells/5 cm dish ([5]; vanadate 5 µM, 72 h): 1.90 x 10^6 cells/5cm dish
- Number of cells/5 cm dish ([5]; vanadate 30 µM, 48 h): 1.04 x 10^6 cells/5 cm dish
- Number of cells/5 cm dish ([5]; vanadate 30 µM, 72 h): 1.80 x 10^6 cells/5cm dish
- Number of cells/5 cm dish ([5]; vanadate 60 µM, 48 h): 9.90 x 10^5 cells/5 cm dish
- Number of cells/5 cm dish ([5]; vanadate 60 µM, 72 h): 1.60 x 10^6 cells/5cm dish
- Number of cells/5 cm dish ([5]; vanadate 120 µM, 48 h): 7.60 x 10^5 cells/5 cm dish
- Number of cells/5 cm dish ([5]; vanadate 120 µM, 72 h): 6.70 x 10^5 cells/5cm dish
- average tumour size ([6]; 4 mice, α-21 cells grown and injected with 50 µM sodium orthovanadate, nine days later): 0.618 cm^2
- tumour size ([6]; individual mice, α-21 cells grown and injected with 50 µM sodium orthovanadate, subcutaneous, 2 x 10^6 cells/mouse, nine days later): 0.30 x 0.8 cm = 0.24 cm^2 and 0.70 x 1.5 cm = 1.05 cm^2 and 0.40 x 0.7 cm = 0.28 cm^2 and 0.75 x 1.2 cm = 0.90 cm^2
- tumours smaller than those arising from cells grown and injected in the absence of vanadate ([6]; on average, 50 µM sodium orthovanadate, nine days): 2.6 times
